Laboratory results from PMC10383271.

Assays:
[1] = test system: alpha-1-acid glycoprotein (AAG); test: Binding site study with AAG, replacement of marker quinaldine red (fluorescence); set-up: species or system human
From the text: Orosomucoid has seven binding sites in its molecule, but there is only one site where the drugs bind. A very good fluorescent marker for binding site study in the case of AAG is quinalidine red (QR).
We used a 500 nm excitation wavelength. In these conditions, the maximum emission spectra were located near 600 nm. We increased the molar ratio of the reactants from 1:1:0 to 1:1:10. The intensity of fluorescence decreases during the addition of successive portions of the analyzed compounds.
Binding site studies were conducted using fluorescence measurements. Spectra were recorded on Cary Eclipse 500 spectrophotometer (Agilent, Santa Clara, CA, USA) at room temperature with a 10 mm path length. HSA and AAG solutions were prepared in phosphate buffer, giving concentrations equal to 1 × 10^−6 M. The concentrations of dansylated-L-glycine (DanG), dansylated-L-phenylalanine (DanF), and quinaldine red (QR) were 1 × 10^−3 M. The densylated amino acids and QR solutions were prepared in ethanol. For the HSA-dansylated amino acids studies, the excitation wavelength was equal to 350 nm, while for the AAG-QR system, it was 500 nm, respectively. Then, 3 mL of protein was mixed with 3 µL of marker solution, giving a molar ratio of 1 to 1. Next, successive portions of the analyzed compounds were added to the mixtures prepared in this way, obtaining the appropriate protein-to-compound molar ratios, amounting to 1:0, 1:0.5, 1:1, 1:2, 1:3, 1:4, 1:5, and 1:10 for the HSA-densylated amino acids systems, and 1:0, 1:0.5, 1:1, 1:2, 1:3, 1:4, 1:6, 1:8, and 1:10 for the AAG-QR systems.

[2] = target: T1, human serum albumin (HSA) (Homo sapiens, UniProt P02768); test: Circular dichroism spectroscopy of HSA, secondary structure; set-up: purchased Sigma-Aldrich Chemie GmbH
T1 sequence (P02768 25-609): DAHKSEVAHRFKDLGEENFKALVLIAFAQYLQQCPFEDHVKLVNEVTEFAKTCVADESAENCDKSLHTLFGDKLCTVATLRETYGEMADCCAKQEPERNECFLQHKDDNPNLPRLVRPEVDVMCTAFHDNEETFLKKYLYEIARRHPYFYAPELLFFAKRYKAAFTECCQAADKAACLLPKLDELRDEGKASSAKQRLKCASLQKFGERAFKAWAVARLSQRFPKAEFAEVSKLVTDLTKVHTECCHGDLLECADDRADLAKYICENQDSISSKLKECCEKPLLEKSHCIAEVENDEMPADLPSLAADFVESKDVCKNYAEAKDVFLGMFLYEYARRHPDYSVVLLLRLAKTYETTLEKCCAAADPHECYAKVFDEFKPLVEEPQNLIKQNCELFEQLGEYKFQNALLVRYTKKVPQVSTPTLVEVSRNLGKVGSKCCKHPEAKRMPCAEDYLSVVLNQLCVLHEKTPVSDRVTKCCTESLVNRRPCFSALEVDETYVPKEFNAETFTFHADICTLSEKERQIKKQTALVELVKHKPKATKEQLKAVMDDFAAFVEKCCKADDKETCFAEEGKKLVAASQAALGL
Description: When the small molecules interact with plasma proteins, changes in circular dichroism spectra are observed. Specific secondary structures such as α-helix or β-sheet have a characteristic band on the spectrum. For the first structure, two negative peaks near 209 and 220 nm are observed, while for the β-sheet, the negative band around 215 nm is present.
Circular dichroism (CD) spectra were measured on the Jasco J-1500 magnetic circular dichroism spectrometer (JASCO International CO., Tokyo, Japan) at room temperature with a 10 mm path length. […] The spectra were measured in the range of 205–250 nm at a scan rate speed of 50 nm/min, with a response time of 1 s. […] They were respectively added into 3 mL of protein solution successive portions of the solutions of the analyzed compounds. The analysis of the obtained results was performed using the CD Multivariate Calibration Creation and CD Multivariate SSE programs (JASCO International CO., Tokyo, Japan). Protein concentrations were converted here for mean residue molar concentrations.

[3] = target: T1, human serum albumin (HSA); test: Fluorescence quenching titration of HSA; conditions: for Kd: logKb; for ΔG°: one value per compound, temperature not given; for ΔH° / ΔS°: van't Hoff
[4] = test system: alpha-1-acid glycoprotein (AAG); test: Fluorescence quenching titration of AAG
Description: Aex is the absorbance at excitation wavelengths, and Aem is the absorbance at emission wavelengths.
The correlation between the stability constant of complexes Kb and standard thermodynamic parameters enthalpy change (ΔH°), and entropy change (ΔS°) was determined by the van’t Hoff Equation (4):(4) logKb=−∆H^°/RT+∆S^°/R where R is the universal gas constant; the free energy change (ΔG°) can be calculated by following Equation (5):(5) ∆G^°=∆H^°−T∆S^°=−RTlnKb
The fluorescence study was performed on a Cary Eclipse 500 spectrophotometer (Agilent, Santa Clara, CA, USA). The spectra were recorded in a cuvette with 10 mm path length at an emission range of 300–500 nm, and the excitation wavelength was 280 nm.

COX-2 = target: T2, COX-2 (Homo sapiens, UniProt P35354); test: COX-2 inhibition, Cayman's COX Colorimetric Inhibitor Screening Assay Kit; conditions: for Selectivity Index (SI): COX-2 IC50/COX-1 IC50
T2 sequence (P35354 18-604): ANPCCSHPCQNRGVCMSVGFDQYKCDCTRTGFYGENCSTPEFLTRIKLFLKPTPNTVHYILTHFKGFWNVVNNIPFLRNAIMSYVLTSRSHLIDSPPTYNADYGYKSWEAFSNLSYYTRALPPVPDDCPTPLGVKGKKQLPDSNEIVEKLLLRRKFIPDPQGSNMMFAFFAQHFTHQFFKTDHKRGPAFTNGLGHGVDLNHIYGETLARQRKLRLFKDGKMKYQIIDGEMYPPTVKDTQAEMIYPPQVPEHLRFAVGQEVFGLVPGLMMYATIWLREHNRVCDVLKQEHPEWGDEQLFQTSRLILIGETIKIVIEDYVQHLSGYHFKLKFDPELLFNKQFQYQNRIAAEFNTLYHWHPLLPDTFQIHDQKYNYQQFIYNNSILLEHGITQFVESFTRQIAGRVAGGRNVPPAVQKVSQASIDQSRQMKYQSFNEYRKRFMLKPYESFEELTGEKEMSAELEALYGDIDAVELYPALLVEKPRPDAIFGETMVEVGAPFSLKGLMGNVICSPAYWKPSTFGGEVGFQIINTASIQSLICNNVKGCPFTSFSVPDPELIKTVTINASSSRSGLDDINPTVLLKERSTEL

[5] = AAG:marker:compound molar ratio 1:1:0.5
[6] = AAG:marker:compound molar ratio 1:1:1
[7] = AAG:marker:compound molar ratio 1:1:2
[8] = AAG:marker:compound molar ratio 1:1:3
[9] = AAG:marker:compound molar ratio 1:1:4
[10] = AAG:marker:compound molar ratio 1:1:6
[11] = AAG:marker:compound molar ratio 1:1:8
[12] = AAG:marker:compound molar ratio 1:1:10

CCCCn1c(C)c2c(OCC(=O)N/N=C/c3ccccc3)nn(C)c(=O)c2c1C [Compound 5a, N-[(Z/E)-benzylideneamino]-2-(6-butyl-3,5,7-trimethyl-4-oxo-pyrrolo[3,4-d]pyridazin-1-yl)oxy-acetamide]
percentage of the replacement of QR [1, 5]: 23.7% | percentage of the replacement of QR [1, 6]: 35.5% | percentage of the replacement of QR [1, 7]: 48.1% | percentage of the replacement of QR [1, 8]: 55.0% | percentage of the replacement of QR [1, 9]: 58.8% | percentage of the replacement of QR [1, 10]: 65.6% | percentage of the replacement of QR [1, 11]: 69.5% | percentage of the replacement of QR [1, 12]: 72.5% | melting point: 210 to 212 °C | Change in % α-helix, (1:5) minus (1:0) ([2]; HSA): −2.0% | % Other ([2]; HSA:compound molar ratio 1:0.5): 20.7% | % α-Helix ([2]; HSA:compound molar ratio 1:0.5): 67.3% | % β-Sheet ([2]; HSA:compound molar ratio 1:0.5): 2.8% | % β-Turn ([2]; HSA:compound molar ratio 1:0.5): 9.2% | % Other ([2]; HSA:compound molar ratio 1:1): 20.9% | % α-Helix ([2]; HSA:compound molar ratio 1:1): 66.9% | % β-Sheet ([2]; HSA:compound molar ratio 1:1): 2.8% | % β-Turn ([2]; HSA:compound molar ratio 1:1): 9.3% | % Other ([2]; HSA:compound molar ratio 1:2): 21.5% | % α-Helix ([2]; HSA:compound molar ratio 1:2): 66.3% | % β-Sheet ([2]; HSA:compound molar ratio 1:2): 2.7% | % β-Turn ([2]; HSA:compound molar ratio 1:2): 9.4% | % Other ([2]; HSA:compound molar ratio 1:3): 21.6% | % α-Helix ([2]; HSA:compound molar ratio 1:3): 66.2% | % β-Sheet ([2]; HSA:compound molar ratio 1:3): 2.8% | % β-Turn ([2]; HSA:compound molar ratio 1:3): 9.5% | % Other ([2]; HSA:compound molar ratio 1:5): 20.3% | % α-Helix ([2]; HSA:compound molar ratio 1:5): 66.1% | % β-Sheet ([2]; HSA:compound molar ratio 1:5): 4.3% | % β-Turn ([2]; HSA:compound molar ratio 1:5): 9.3% | Ksv ([3]; T 297 K): 1.87 ± 0.04 × 10^5 dm^3·mol^−1 | kq ([3]; T 297 K): 1.87 × 10^13 dm^3·mol^−1·s^−1 | n (number of binding sites) ([3]; T 297 K): 0.97 ± 0.04 | Ksv ([3]; T 303 K): 1.71 ± 0.03 × 10^5 dm^3·mol^−1 | kq ([3]; T 303 K): 1.71 × 10^13 dm^3·mol^−1·s^−1 | n (number of binding sites) ([3]; T 303 K): 0.95 ± 0.02 | Ksv ([3]; T 308 K): 1.41 ± 0.03 × 10^5 dm^3·mol^−1 | kq ([3]; T 308 K): 1.41 × 10^13 dm^3·mol^−1·s^−1 | n (number of binding sites) ([3]; T 308 K): 0.92 ± 0.02 | Kd ([3]; T 297 K): 7.94 µM | Kd ([3]; T 303 K): 11.2 µM | Kd ([3]; T 308 K): 20.9 µM | ΔG° [3]: -6.979 kcal/mol | ΔH° [3]: -16.14 kcal/mol | ΔS° [3]: −129.11 J·mol^−1·K^−1 | Ksv ([4]; T 297 K): 9.04 ± 0.16 ·10^4 dm^3·mol^−1 | kq ([4]; T 297 K): 9.04 ·10^12 dm^3·mol^−1·s^−1 | logKb ([4]; T 297 K): 1.82 ± 0.12 | Ksv ([4]; T 303 K): 3.15 ± 0.41 ·10^4 dm^3·mol^−1 | kq ([4]; T 303 K): 3.15 ·10^12 dm^3·mol^−1·s^−1 | logKb ([4]; T 303 K): 1.73 ± 0.27 | Ksv ([4]; T 308 K): 1.11 ± 0.16 ·10^4 dm^3·mol^−1 | kq ([4]; T 308 K): 1.11 ·10^12 dm^3·mol^−1·s^−1 | logKb ([4]; T 308 K): 1.62 ± 0.26 | IC50 (COX-2): 17.2 ± 1.4 µM | Selectivity Index (SI) (COX-2): 0.21

Cc1c2c(OCC(=O)N/N=C/c3ccccc3)nn(C)c(=O)c2c(C)n1-c1cccc(Cl)c1 [Compound 5c, N-[(Z/E)-benzylideneamino]-2-[6-(3-chlorophenyl)-3,5,7-trimethyl-4-oxo-pyrrolo[3,4-d]pyridazin-1-yl]oxyacetamide]
percentage of the replacement of QR [1, 5]: 31.7% | percentage of the replacement of QR [1, 6]: 39.7% | percentage of the replacement of QR [1, 7]: 52.4% | percentage of the replacement of QR [1, 8]: 54.0% | percentage of the replacement of QR [1, 9]: 54.8% | percentage of the replacement of QR [1, 10]: 55.6% | percentage of the replacement of QR [1, 11]: 55.6% | percentage of the replacement of QR [1, 12]: 55.6% | melting point: 273 to 275 °C | Change in % α-helix, (1:5) minus (1:0) ([2]; HSA): −1.6% | reduction in the percentage of α-helix ([2]; HSA): 1.6% | % Other ([2]; HSA:compound molar ratio 1:0.5): 19.6% | % α-Helix ([2]; HSA:compound molar ratio 1:0.5): 68.4% | % β-Sheet ([2]; HSA:compound molar ratio 1:0.5): 2.9% | % β-Turn ([2]; HSA:compound molar ratio 1:0.5): 9.1% | % Other ([2]; HSA:compound molar ratio 1:1): 20.3% | % α-Helix ([2]; HSA:compound molar ratio 1:1): 68.0% | % β-Sheet ([2]; HSA:compound molar ratio 1:1): 2.5% | % β-Turn ([2]; HSA:compound molar ratio 1:1): 9.2% | % Other ([2]; HSA:compound molar ratio 1:2): 19.8% | % α-Helix ([2]; HSA:compound molar ratio 1:2): 67.8% | % β-Sheet ([2]; HSA:compound molar ratio 1:2): 3.2% | % β-Turn ([2]; HSA:compound molar ratio 1:2): 9.2% | % Other ([2]; HSA:compound molar ratio 1:3): 19.7% | % α-Helix ([2]; HSA:compound molar ratio 1:3): 67.8% | % β-Sheet ([2]; HSA:compound molar ratio 1:3): 3.3% | % β-Turn ([2]; HSA:compound molar ratio 1:3): 9.1% | % Other ([2]; HSA:compound molar ratio 1:5): 20.0% | % α-Helix ([2]; HSA:compound molar ratio 1:5): 67.3% | % β-Sheet ([2]; HSA:compound molar ratio 1:5): 3.5% | % β-Turn ([2]; HSA:compound molar ratio 1:5): 9.2% | Ksv ([3]; T 297 K): 4.33± 0.25 × 10^5 dm^3·mol^−1 | kq ([3]; T 297 K): 4.33 × 10^13 dm^3·mol^−1·s^−1 | n (number of binding sites) ([3]; T 297 K): 0.92 ± 0.06 | Ksv ([3]; T 303 K): 3.86 ± 0.13 × 10^5 dm^3·mol^−1 | kq ([3]; T 303 K): 3.86 × 10^13 dm^3·mol^−1·s^−1 | n (number of binding sites) ([3]; T 303 K): 0.90 ± 0.02 | Ksv ([3]; T 308 K): 2.87 ± 0.12 × 10^5 dm^3·mol^−1 | kq ([3]; T 308 K): 2.87 × 10^13 dm^3·mol^−1·s^−1 | n (number of binding sites) ([3]; T 308 K): 0.85 ± 0.04 | Kd ([3]; T 297 K): 6.17 µM | Kd ([3]; T 303 K): 8.91 µM | Kd ([3]; T 308 K): 26.3 µM | ΔG° [3]: -7.163 kcal/mol | ΔH° [3]: -23.45 kcal/mol | ΔS° [3]: −229.47 J·mol^−1·K^−1 | Ksv ([4]; T 297 K): 15.87± 2.41 ·10^4 dm^3·mol^−1 | kq ([4]; T 297 K): 15.87 ·10^12 dm^3·mol^−1·s^−1 | logKb ([4]; T 297 K): 2.64 ± 0.16 | Ksv ([4]; T 303 K): 14.60 ± 2.05 ·10^4 dm^3·mol^−1 | kq ([4]; T 303 K): 14.60 ·10^12 dm^3·mol^−1·s^−1 | logKb ([4]; T 303 K): 2.47 ± 0.17 | Ksv ([4]; T 308 K): 9.99 ± 1.60 ·10^4 dm^3·mol^−1 | kq ([4]; T 308 K): 9.99 ·10^12 dm^3·mol^−1·s^−1 | logKb ([4]; T 308 K): 2.31 ± 0.20 | IC50 (COX-2): 23.6 ± 2.5 µM | Selectivity Index (SI) (COX-2): 0.23
